Reference: PubChem BioAssay AID1963831 (Molecular Pharmacology Branch, DTP, NCI, 2024)

System: 889142-216-R-J1-PDC complex spheroid viability
Experiment: Anticancer human tumor 889142-216-R-J1-PDC patient-derived bladder carcinoma cell line growth inhibition [POLQ]
Conditions: for IC50: curve of first compound; for viability, T/C: stronger effect = lower value
Outline: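 PDC + HUVEC + MSC complex spheroids; POLQ inhibitors ± partner drugs; top conc. at/near clinical Cmax, else 10 microM (SN-38 1 microM), half-log dilutions; 37 degrees C, 5% CO2.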
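Further: spheroids exposed to compounds for seven days.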
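Wherever viability, T/C is given: 100% = DMSO vehicle control viability.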

`C#Cc1c(F)ccc2cc(O)cc(-c3ncc4c(N5CC6CCC(C5)N6)nc(OCC56CCCN5CC(F)C6)nc4c3F)c12` (configuration not stated) + COC1C(OC(N)=O)C(O)C(Oc2ccc3c(O)c(NC(=O)c4ccc(O)c(CC=C(C)C)c4)c(=O)oc3c2C)OC1(C)C gave an IC50 (second compound 0.0316 µM) of 5.38 µM, an IC50 (second compound 0.1 µM) of 9.08 µM and an IC50 (second compound 0.316 µM) of 5.82 µM. For the same compound, the IC50 (second compound 1 µM) was 4.77 µM, the IC50 (second compound 3.16 µM) was 5.53 µM and the IC50 (second compound 10 µM) was 4.96 µM. It also gave a viability, T/C (second compound 0.0316 µM, first compound 0.0316 µM) of 99.2%, a viability, T/C (second compound 0.0316 µM, first compound 0.1 µM) of 111% and a viability, T/C (second compound 0.0316 µM, first compound 0.316 µM) of 66.3%. The viability, T/C (second compound 0.0316 µM, first compound 1 µM) was 88.7%, the viability, T/C (second compound 0.0316 µM, first compound 3.16 µM) was 63.7% and the viability, T/C (second compound 0.0316 µM, first compound 10 µM) was 34.5%. It also gave a viability, T/C (second compound 0.1 µM, first compound 0.0316 µM) of 108%, a viability, T/C (second compound 0.1 µM, first compound 0.1 µM) of 109% and a viability, T/C (second compound 0.1 µM, first compound 0.316 µM) of 77.4%. The viability, T/C (second compound 0.1 µM, first compound 1 µM) was 89.5%, the viability, T/C (second compound 0.1 µM, first compound 3.16 µM) was 81.5% and the viability, T/C (second compound 0.1 µM, first compound 10 µM) was 44.3%. For the same compound, the viability, T/C (second compound 0.316 µM, first compound 0.0316 µM) was 119%, the viability, T/C (second compound 0.316 µM, first compound 0.1 µM) was 113% and the viability, T/C (second compound 0.316 µM, first compound 0.316 µM) was 82.5%. For the same compound, the viability, T/C (second compound 0.316 µM, first compound 1 µM) was 97.3%, the viability, T/C (second compound 0.316 µM, first compound 3.16 µM) was 76.1% and the viability, T/C (second compound 0.316 µM, first compound 10 µM) was 29.4%. The viability, T/C (second compound 1 µM, first compound 0.0316 µM) was 89.1%, the viability, T/C (second compound 1 µM, first compound 0.1 µM) was 91.8% and the viability, T/C (second compound 1 µM, first compound 0.316 µM) was 95.4%. It also gave a viability, T/C (second compound 1 µM, first compound 1 µM) of 82%, a viability, T/C (second compound 1 µM, first compound 3.16 µM) of 62.8% and a viability, T/C (second compound 1 µM, first compound 10 µM) of 27.8%. It also gave a viability, T/C (second compound 3.16 µM, first compound 0.0316 µM) of 96.9%, a viability, T/C (second compound 3.16 µM, first compound 0.1 µM) of 84.9% and a viability, T/C (second compound 3.16 µM, first compound 0.316 µM) of 95%. It also gave a viability, T/C (second compound 3.16 µM, first compound 1 µM) of 79.2%, a viability, T/C (second compound 3.16 µM, first compound 3.16 µM) of 78.2% and a viability, T/C (second compound 3.16 µM, first compound 10 µM) of 23.2%. The viability, T/C (second compound 10 µM, first compound 0.0316 µM) was 103%, the viability, T/C (second compound 10 µM, first compound 0.1 µM) was 87.2% and the viability, T/C (second compound 10 µM, first compound 0.316 µM) was 76.1%. It also gave a viability, T/C (second compound 10 µM, first compound 1 µM) of 76.8%, a viability, T/C (second compound 10 µM, first compound 3.16 µM) of 71.5% and a viability, T/C (second compound 10 µM, first compound 10 µM) of 27.1%.
